Measurements taken from US11248022B2, “Glypican-3 peptide reagents and methods” (THE REGENTS OF THE UNIVERSITY OF MICHIGAN, priority 2017, dated 2022).
Like-named read-outs stand apart in the source and are kept apart here. One block for each compound: values may come before it. Ends that are not written are not given here.

Legend:
Hep3B cells = assay: Competition for peptide binding on Hep3B cells; type: cell-based, human
Description: The specificity of peptide reagent binding was also validated by competition assay. Hep3B cells were grown on cover glass and incubated first with unlabeled peptides over a range of concentrations (0-500 μM), and then with ALL*-Cy5.5 peptide. The fluorescence intensities were measured using confocal microscopy. […] Differences in fluorescence intensity between the ALL*-Cy5.5 peptide reagent and control are significant at concentrations of 50 μM and greater.

GPC3 = target: T1, GPC3 (Homo sapiens, UniProt P51654); assay: siRNA knockdown of GPC3 in Hep3B cells, confocal fluorescence; type: cell-based; settings: Hep3B cells transfected with non-targeting siRNA (siCL)
T1 construct: endogenous in cells; host or cells: Hep3B human HCC cells (siCL control vs siGPC3 knockdown); also HepG2; SK-Hep1 as GPC3-negative control
T1 sequence (P51654 25-554): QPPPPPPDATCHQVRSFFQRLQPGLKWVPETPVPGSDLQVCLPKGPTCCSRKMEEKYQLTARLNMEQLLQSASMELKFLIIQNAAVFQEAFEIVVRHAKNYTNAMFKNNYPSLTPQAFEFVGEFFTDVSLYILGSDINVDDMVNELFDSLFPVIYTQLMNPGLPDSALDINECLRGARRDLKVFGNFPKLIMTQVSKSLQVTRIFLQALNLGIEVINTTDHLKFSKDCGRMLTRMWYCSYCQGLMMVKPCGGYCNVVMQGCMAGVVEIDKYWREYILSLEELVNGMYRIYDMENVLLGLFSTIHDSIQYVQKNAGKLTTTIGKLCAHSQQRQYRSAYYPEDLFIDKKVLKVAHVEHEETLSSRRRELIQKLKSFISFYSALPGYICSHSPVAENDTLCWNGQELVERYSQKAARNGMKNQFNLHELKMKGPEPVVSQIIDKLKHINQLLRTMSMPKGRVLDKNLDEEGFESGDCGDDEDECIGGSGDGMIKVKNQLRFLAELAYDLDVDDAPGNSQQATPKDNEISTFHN
Description: (§1) FIGS. 6-2A-Q show validation of specific peptide binding to cells in vitro. […] The Hep3B versus SK-Hep1 difference was also larger for antibody than QLE (P=2.3×10^−8, 6.0-fold larger). Intensity was measured with 6 replicates per condition and fitted to an ANOVA model with terms for 9 means to log-transformed data. […] We further validated specific peptide binding to GPC3 using siRNA knockdown. […] Q) Quantified fluorescence intensities. The siCL vs siGPC3 difference was 7.4 times bigger for ALL than the same difference for QLE (P=7.8×10^−5), and the difference for antibody was 8.9 times bigger than for QLE (P=2.5×10^−5), by ANOVA on log-transformed data. Results are an average of 6 images collected independently.
The specificity of lead candidate peptide reagent binding was validated by siRNA knockdown of GPC3 in human HCC cells. The cells were transfected with siRNA to knockdown cell surface expression of GPC3. […] These cells were transfected with non-targeting siRNA (siCL) for use as control. […] FIG. 6-1D,E show ˜4-fold reduction in fluorescence intensity with both the peptide reagent and anti-GPC3 antibody, respectively, for Hep3B cells transfected with siRNA (siGPC3) to knock down GPC3 expression. […] FIG. 6-2M, N, O and P show the same result as original FIG. 6-1A, B, D and E.

Hep3B xenograft tumors = assay: Ex vivo confocal validation on Hep3B xenograft sections and normal liver; set-up: species or system mice; settings: normal mouse liver sections
Description: (§2) The specimens were also sectioned for collection of confocal images to perform microscopic validation of peptide binding ex vivo.

SK-Hep1 xenograft tumors = assay: Immunostaining on GPC3 negative SK-Hep1 xenograft sections; set-up: species or system mice; settings: no GPC3 expression
Description: FIGS. 18A-D show immunostaining on GPC3 negative HCC xenograft tumor.
as §2

[1] = system: GPC3 positive tumor (from Hep3B cells); assay: In vivo whole body fluorescent imaging of HCC xenograft
Description: Mice bearing HCC xenograft tumor (arrowheads) were i.v. injected with 250 μL of 300 μM near NIR GPC3 targeting peptide ALL*-Cy5.5, scrambled control peptide QLE*-Cy5.5 and unlabeled Cy5.5 free dye alone. ALL*-Cy5.5 was also injected in mice bearing GPC3 negative tumor (from SK Hep-1 cells, arrows) as control of EPR effect. Pre-injection imaging confirmed no autofluorescence was present.

[2] = system: HCC xenograft tumor overexpressing GPC3; assay: In vivo handheld dual axes confocal endomicroscope imaging; set-up: species or system mice
Description: GPC3 expression from human HCC xenograft tumors was evaluated in real time by collecting optical sections in vivo using a handheld 5.5 mm diameter dual axes confocal endomicroscope. A solid-state diode laser (300 mW, CNI Laser Inc.) provided illumination at λex=671 nm. A parabolic mirror focused the illumination and collection beams to overlap below the tissue surface with lateral and axial resolution of 2 and 5 μm, respectively. A compact, 3D monolithic scanner located in the distal tip provided large vertical displacements and wide angular deflections to produce images in the vertical (XZ) and horizontal (XY) planes with a FOV of 1000×430 and 1000×1000 μm^2, respectively. NIR fluorescence is collected and passes through a band pass filter (FF01-716/40-25, Semrock) that transmits from 696-736 nm with >93% efficiency for detection with a photomultiplier tube (PMT, H7422PA-40, Hamamatsu) detector. The peptides were injected via the tail vain, and dissected away the skin overlying the tumor to gain access. The distal tip of the endomicroscope was placed in contact with the tumor using a drop of saline to couple the light. Laser power <2 mW on the tissue was used to avoid photobleaching. NIR fluorescence images were collected at 5 frames per sec. 3D volumetric images were reconstructed from a series of images collected in the vertical plane using Amira software (ver 5.4.3, FEI Corporation).
The probe was small enough to be comfortably held in the surgeon's hand during surgery, FIG. 12A, for in vivo imaging of biomarker expression. Its diameter was 5.5 mm and delivered 671 nm near-infrared laser at 2 mW. Mouse carrying HCC xenograft tumor overexpressing GPC3 was first injected with 250 μL 300 μM ALL*-Cy5.5 peptide intravenously and after 2 hours the probe was held in contact with exposed subcutaneous tumor to acquire in vivo peptide binding images, FIG. 12B. Images were collected in either the vertical or horizontal plane with 430 μm depth or 1000×1000 μm^2 area, respectively, at 5 frames per second. With measured lateral resolution of 2.49 μm and axial resolution of 4.98 μm, each peptide stained cell can be clearly seen (arrows). […] Strong uptake (arrows) of ALL*-Cy5.5 in tumor was captured on optical sections collected in the horizontal (1000×1000 μm^2, Video 1) FIG. 12C and vertical (1000×430 μm^2, Video 2) FIG. 12D planes, respectively. A series of vertical cross-section images were reconstructed into 3D MIP volume (Video 3), FIG. 12E.

Hep3B human HCC cells = assay: Confocal microscopy of peptide binding to Hep3B cells; type: cell-based; settings: Hep3B cells, confocal microscopy
Description: as §1
(§3) On confocal microscopy, it was shown that ALL*-Cy5.5 binds to the surface (arrows) of cells with different levels of GPC3 expression. […] GPC3 is highly overexpressed in Hep3B cell cytosol and membrane while moderately expressed in HepG2 cells. No GPC3 expression is observed in SK-Hep1 cells. Tubulin serves as loading control for either cytosol or membrane fractions loaded.

Hep3B xenograft = assay: In vivo NIR laparoscopic imaging of HCC xenograft tumors; set-up: species or system mice; settings: NIR laparoscope, 2 hours after i.v. injection, n=8
Description: Human HCC cells Hep3B and SK-Hep1 were cultured in Eagle's Minimum Essential Medium (EMEM) at 37° C. in 5% CO2, and supplemented with 10% fetal bovine serum (FBS) and 1% penicillin/streptomycin. Western blotting was performed to validate expression level of GPC3. Cells were diluted in growth factor reduced (GFR) Matrigel Matrix (Corning), and injected into one flank of female (to avoid male dominance within a cage) nude athymic mice (nu/nu, Jackson Laboratory) at 4 to 6 weeks of age with weight between 20 to 25 grams. ˜5×10^6 cells were implanted per mouse.
A standard surgical laparoscope (#49003 AA, HOPKINS® II Straight Forward Telescope 0°, Karl Storz) that is ˜10 mm in diameter and has a 31 cm length rigid sheath was adapted to collect reflectance and fluorescence concurrently. Nude mice with human HCC xenograft 2 weeks post implantation were tail vein injected with 200 μL 300 μM GPC3 peptide ALL*-Cy5.5. During imaging, the mice were anesthetized with inhaled isoflurane. We first used laparoscope with white light illumination to exam the xenograft. Laparoscopic images were taken two hours post injection in both fluorescence and reflection mode simultaneously with excitation solid state diode laser (660-S, Toptica Photonics) to deliver excitation at λex=660 nm into the fiber optic light guide. Images were collected at 5 frames/sec with a laser power of 1.2 mW. Hoechst 33342 (H1399, Life Technologies) at a dose of 10 mg/kg diluted in 200 μL of PBS was delivered intravenously via a tail vein injection to stain the cell nuclei 30 minutes before sacrificing the mouse. Xenograft tumors were resected and confocal fluorescence images were collected with Cy5.5 and DAPI filters 50 μm beneath the surface using a confocal microscope (Leica SPSX Upright 2-Photon Confocal Microscope). Following imaging, resected xenografts were fixed and formalin embedded for immunohistochemistry and H&E staining as described previously.
Fluorescence images of mouse HCC xenograft taken at 2 hrs post peptide injection were registered with corresponding reflectance images taken simultaneously. The fluorescence intensity of each pixel in the image was divided by intensity of corresponding pixel in the reflectance image in order to account for the difference in distance between each pixel and the laser source. A heat map image was generated from the resulting ratios at each pixel. Image segmentation was performed automatically by custom Matlab (Mathworks) software program using Ostu's Method [Otsu, Automatica, 11(285-296): 23-27 (1975)]. Target to background ratio of each processed image was calculated by dividing the average intensity of pixels inside the segmented tumor and that of those within 30 pixels outside of segmentation outline.

SK-Hep1 cells = assay: Confocal microscopy of peptide binding to SK-Hep1 cells; type: cell-based, human
Description: as §1, §3

HepG2 human HCC cells = assay: Confocal microscopy of peptide binding to HepG2 cells; type: cell-based; settings: HepG2 cells, confocal microscopy
Description: as §1, §3

[3] = target: purified recombinant GPC3 core protein (Homo sapiens, UniProt P51654); assay: Phage display biopanning; type: binding; settings: four rounds of biopanning
Chain of purified recombinant GPC3 core protein (P51654 25-554): as above
Description: A panel of candidate peptides that are specific to GPC3 was identified using phage display technology. Peptide selection was performed using a library of M13 bacteriophage that express ˜10^9 unique clones of each individual sequence [Zhou et al., Clin Transl Gastroenterol, 6:e101 (2015); Joshi et al., Bioconjug Chem, 27:481-494 (2016); Rabinsky et al., Cell Mol Gastroenterol Hepatol, 2:222-237 (2016)]. The library was biopanned against purified recombinant GPC3 core protein immobilized in a 6-well plate. Four rounds of biopanning were performed using decreasing quantity (100, 80, 60, and 40 μg) of GPC3 core protein in successive rounds to increase binding specificity. The bound phages were eluted, amplified, precipitated and tittered using standard protocols, and the enriched clones from the candidate pool were sequenced to identify the lead candidates: ALLANHEELF (SEQ ID NO: 2), GLHTSATNLYLH (SEQ ID NO: 3), SGVYKVAYDWQH (SEQ ID NO: 4) and VGVESCASRCNN (SEQ ID NO: 5).

advanced HCC = settings: cited from earlier work

Compound: QLELTFHANLEA [QLE*, scrambled (control) peptide, unlabeled, reference compound]
effect of unlabeled peptide on ALL*-Cy5.5 fluorescence intensity (Hep3B cells): no change

binding to cell surface (GPC3): minimal binding
Compound: QLE*-Cy5.5: scrambled control peptide QLELTFHANLEA (SEQ ID NO: 6) labeled with Cy5.5 via GGGSK linker (QLELTFHANLEAGGGSK-{Cy5.5}) [reference compound]
staining of normal mouse liver (Hep3B xenograft tumors): Minimal staining
staining of xenograft sections (SK-Hep1 xenograft tumors): No staining
target-to-background (T/B) ratio ([1]; 2 hours post injection, mean±SD): 1.12±0.19
fluorescent intensity at tumor ([2]; 2 hours after i.v. injection, n=8): 16±4
uptake/staining in tumor on optical sections ([2]; horizontal and vertical planes): Minimal staining
fluorescence intensity from binding to cell surface (Hep3B human HCC cells): Minimal signal
target-to-background (T/B) ratio (Hep3B xenograft): 3.0±0.7
fluorescence intensity from binding to cell surface (SK-Hep1 cells): Minimal signal
fluorescence intensity from binding to cell surface (HepG2 human HCC cells): Minimal signal

Compound: ALLANHEELF
level of enrichment in biopanning [3]: highest level of enrichment

Compound: ALLANHEELFQT [ALL*]
effect of unlabeled peptide on ALL*-Cy5.5 fluorescence intensity (Hep3B cells): dose-dependent decrease
concentration of unlabeled peptide giving significant decrease in ALL*-Cy5.5 binding (Hep3B cells; unlabeled peptide 0-500 μM): ≥ 50 µM

time of peak uptake/signal post injection ([1]; i.v. injection, whole-body NIR imaging): 0.5 h
Compound: CCN1\C(=C/C=C/C=C/C2=[N+](CCCCCC(=O)O)c3ccc4c(S(=O)(=O)O)cc(S(=O)(=O)O)cc4c3C2(C)C)C(C)(C)c2c1ccc1c(S(=O)(=O)[O-])cc(S(=O)(=O)O)cc21 [free Cy5.5 dye, reference compound]

Compound: QRH*-Cy5.5: label printed in b35/b133 without definition; apparently a misprint for QLE*-Cy5.5 or ALL*-Cy5.5 (QRHKPREGGGSK; not fully specified (C-terminus); also: Cy5.5 label, site not given here, QRH* code without meaning)
target-to-background (T/B) ratio (Hep3B xenograft): 3.0±0.7

Compound: CNC(=O)c1cc(Oc2ccc(NC(=O)Nc3ccc(Cl)c(C(F)(F)F)c3)cc2)ccn1 [sorafenib, Sorafenib]
survival duration (advanced HCC; Asian patients): 6.5 months
survival duration (advanced HCC; Caucasian patients): 7.9 months
survival advantage over placebo (advanced HCC; clinic studies (SHARP)): ~3 months
